What was measured:
MLK3 = MLK3 (Rattus norvegicus (Rat), UniProt Q66HA1); settings: primary rat neurons; cited from earlier work
HIV-1 = settings: in vivo model of HIV-1 infection; cited from earlier work
[1] = system: primary rat hippocampal neurons; settings: primary rat hippocampal and dorsal root ganglion neurons; cited from earlier work
MOG35-55 EAE mice = test: MOG35-55 EAE model; type: in vivo
Description: Hippocampal synaptic injury in MOG35-55 EAE mice correlates with microglial activation and may occur independent of myelin loss. […] Protective effects in EAE hippocampal gray matter appear dissociable from those in the spinal cord. Many interventions targeting microglial function affect EAE motor deficits and the spinal cord inflammation that those largely reflect.

HIV-1 ADA = test: HIV-1 infection model in humanized mice; type: in vivo; settings: nanoART 6 weeks s.c.; Compound AH 10 mg/kg i.p. once daily during final two weeks
Description: The MLK inhibitor Compound AH was used in test with an animal model for HIV-1 infection. Specifically, 22 week old humanized mice (NOD/scidIL-2Rγc^null (NSG) mice stably engrafted with human CD34+ hematopoeitic stem cells were infected with HIV-1 ADA (Gorantla et al., J. Virol. 81:2700-2712, 2007). The mice were then treated with the nanoformulated antiretroviral therapy comprising atazanavir and ritonavir (nanoART) for 6 weeks by s.c. injections (6×/week). During the final two weeks, the animals also received the MLK-3 inhibitor Compound AH by once daily injection (10 mg/kg i.p.). Viral RNA load was measured over time in plasma from these mice, and productively infected cells were counted in tissues harvested from animals at sacrifice (including lymph node (FIG. 4) and spleen (FIG. 5)).
Further, starting at 10 weeks post infection, when the mice were at the peak of their viral load (VL) the MLK-3 inhibitor Compound AH was administered daily and the nanoART was administered weeks for three weeks. Peripheral VL ratio of human CD4+ and CD8+ T lymphocyte, drug levels in plasma and organs and pathological changes in lymphoid and brain tissues were investigated.
(§1) Higher plasma drug levels correspond to lowest viral load.

Rab7 = Rab7 (Homo sapiens (Human), UniProt P51149); test: Proteomic analyses of human monocyte-derived macrophages (Rab7); type: cell-based; settings: HIV-1 infected MDM
Description: FIG. 7 (top) is a schematic of a proteomic analysis.
FIG. 8 is a photograph from a Western blot validation for Rab7a. Rab7A (Protein KB) is a key regulator in endolysosomal trafficking. It governs early-to-late endosomal maturation, microtubule minus-end as well as plus-end directed endosomal migration and positioning, and endosome-lysosome transport.
as §1

Human monocytes = test: Tat-assays: Tat-induced cytokine and chemokine production in human monocytes (Luminex); type: cell-based; settings: 50 nM HIV-1 Tat, 8 hours
Description: Human monocytes were isolated from freshly collected whole blood using CD14 immunomagnetic beads (Miltenyi-Biotec). Cells were then plated in 24-well plates at 5×10^4 cells/well in RPMI-1640 culture medium supplemented with 10% fetal bovine serum (FBS). The specified compounds were then added to the cultures at the indicated concentrations (100, […], 1000 nM); in control wells, no compound was added. 30 min later, HIV-1 Tat was added to a final concentration of 50 nM the cells were incubated for 8 hours (in control wells, nothing was added [NT]). Cell supernatants were then collected, centrifuged 15 min at 13000 rpm to remove debris, transferred to new microcentrifuge tubes and frozen at −20° C. A Luminex bead array assay was then performed, for the indicated chemokines and cytokines. Results were measured in triplicate or quadruplicate, and data are presented as mean values; error bars denote the standard deviation. Note that similar results were obtained with monocytes derived from multiple (n>5) different donors, as well as in terminally differentiated monocyte-derived macrophages (data not shown due to space limitations). *:p<0.05; one-way ANOVA with Bonferroni's correction (when compared to Tat only control). See FIG. 11 (tat-induced cytokine production) and FIG. 12 (tat-induced chemokine production).

[2] = system: Rab 7 late endosomal compartment; test: Rab studies: nanoART drug levels in endosomal compartments; type: cell-based
Description: FIG. 25 is a graph showing that Compound AH is able to sustain the presence of atazanavir/ritonavir nanoART in late endosomes. Concentrations of 1 and 10 ng/mL of Compound AH increases drug levels for more than 10 days in these compartments. This is significant and reproducible. […] Thus more of the drug is present in there for longer time periods, boosting efficacy and leading to reduction of residual virus.
The Rab 7 compartment increased marked in size and expression (protein content) as a result of HIV infection. […] That is also where anti-HIV proteases work and where their sites of actions lie. […] This signals that the combination has eliminated or nearly so, the ability of virus to assemble in this compartment.

Tat = Tat (Human immunodeficiency virus type 1 group M subtype B (isolate HXB2) (HIV-1), UniProt P04608); test: Tat injection model, synapse protection and neuroinflammation (FIGS. 10-24); type: in vivo
Description: FIG. 19 is a group of photographs showing IHC synapse protection. Map2 staining 28 days post injection at the injection site. Pre/continuous treatment with Compound AH at 10 mg/kg i.p. q 12, 9 μg of Tat injected at 80 nL/min. The same Compound AH/Tat treatment paradigm was used in FIGS. 20-24.
(FIGS. 10-24). The compound is a selectively non-selective inhibitor for a subset of kinases that have pathogenetic roles for activation of immune effector cells with damage to target cells (neurons, myocytes, pancreatic acinar cells) in both central and peripheral degenerative diseases with autoimmune components.

Chain of Tat (P04608 whole entry, looked up): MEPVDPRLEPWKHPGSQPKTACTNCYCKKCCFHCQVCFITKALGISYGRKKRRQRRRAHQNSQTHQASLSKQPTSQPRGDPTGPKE
Chain of MLK3 (Q66HA1 whole entry): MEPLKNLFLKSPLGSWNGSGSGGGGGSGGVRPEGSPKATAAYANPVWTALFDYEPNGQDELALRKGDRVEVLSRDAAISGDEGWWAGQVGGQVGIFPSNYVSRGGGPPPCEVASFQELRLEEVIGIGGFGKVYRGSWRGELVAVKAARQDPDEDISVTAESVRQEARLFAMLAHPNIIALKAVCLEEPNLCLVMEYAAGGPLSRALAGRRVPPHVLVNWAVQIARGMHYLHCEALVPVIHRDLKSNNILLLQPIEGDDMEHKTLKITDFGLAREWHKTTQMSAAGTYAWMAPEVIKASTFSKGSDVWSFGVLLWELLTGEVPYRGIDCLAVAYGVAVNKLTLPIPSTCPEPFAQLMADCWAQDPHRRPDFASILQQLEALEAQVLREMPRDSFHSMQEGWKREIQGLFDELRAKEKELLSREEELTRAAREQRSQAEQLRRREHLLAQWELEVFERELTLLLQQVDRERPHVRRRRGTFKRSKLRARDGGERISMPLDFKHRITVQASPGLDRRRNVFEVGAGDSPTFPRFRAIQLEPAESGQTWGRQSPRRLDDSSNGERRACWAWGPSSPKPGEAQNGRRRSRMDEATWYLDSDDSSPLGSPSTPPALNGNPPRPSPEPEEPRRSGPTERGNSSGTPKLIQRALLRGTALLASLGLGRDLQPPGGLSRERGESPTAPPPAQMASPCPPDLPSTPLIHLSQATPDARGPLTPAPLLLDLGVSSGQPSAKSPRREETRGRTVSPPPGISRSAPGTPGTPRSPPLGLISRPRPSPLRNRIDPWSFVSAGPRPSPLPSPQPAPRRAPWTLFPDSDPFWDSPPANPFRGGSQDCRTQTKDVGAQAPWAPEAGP

Row | SMILES | Tat and gp120 induced autophosphorylation of MLK3 (MLK3) | neuroprotection in vivo (HIV-1) | protection of neurons from lethal effects of HIV-1 gp120 [1] | microglial activation in EAE hippocampus (MOG35-55 EAE mice; EAE hippocampus) | synaptic structure in EAE hippocampus (MOG35-55 EAE mice; EAE hippocampus) | EAE motor deficits (MOG35-55 EAE mice; treatment at onset of clinical disease) | HIV-1 viral load (HIV-1 ADA) | Rab7 protein regulation (Rab7) | tat-induced cytokine production (Human monocytes; FIG. 11) | tat-induced chemokine production (Human monocytes; FIG. 12) | time for which atazanavir/ritonavir nanoART drug levels in late endosomes are increased ([2]; 1 and 10 ng/mL of Compound AH, FIG. 25) | drug levels in Rab compartments ([2]; Compound AH induction) | neuroprotection to the synapse (Tat; Compound AH 10 mg/kg i.p. q 12, 9 μg of Tat injected) | neuroinflammation (Tat; FIGS. 10-24)
1 | CCSCc1ccc2c(c1)c1c3c(c4c5cc(CSCC)ccc5n5c4c1n2[C@H]1C[C@](O)(C(=O)OC)[C@]5(C)O1)CNC3=O (relative stereo) [CEP1347, 3,9-bis[(ethylthio)methyl]-(8R*,9S*, 11S*)-(−)-9-hydroxy-9-methoxycarbonyl-8-methyl-2,3,9,10-tetrahydro-8,11-epoxy-1H,8H, 11H-2,7b,11a-triazadibenzo(a,g)cycloocta(cde)trinden-1-one] | abolished | neuroprotective | can protect primary rat hippocampal neurons as well as dorsal root ganglion neurons |  |  |  |  |  |  |  |  |  |  | 
2 | CN1CCN(Cc2ccc(-c3cnc4[nH]cc(-c5ccc6[nH]ccc6c5)c4c3)cc2)CC1 [Compound AH] |  |  |  | attenuates microglial activation | protects synaptic structure | no effect on EAE motor deficits | modest reducing in HIV-1 viral load | induced the RAS-related GTP-binding protein Rab7 | blocks tat-induced cytokine production | blocks tat-induced chemokine production | more than 10 days | general increase in drug levels was seen in all Rab compartments | provides neuroprotection to the synapse | anti-neuroinflammatory

Source: patent publication US10485800B2, “Mixed lineage kinase inhibitors for HIV/AIDS therapies” (UNIVERSITY OF ROCHESTER, priority 2012, dated 2019)
